Assay [1] deals with primary human total T-cells. The assay can be described thus: T-cell activation assessed by CD69 expression. In kind it is cell-based. Summed up:
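Readouts are fold change versus compound-free cells under the same stimulation: plate-bound anti-CD3 (OKT3, 10 μg/mL coating) alone or with soluble anti-CD28 at 5 μg/mL, for 48 h. Isolated human total T cells (1×10^5/well) got inhibitor 1 h beforehand at concentrations such as 10, 1.11 or 0.123 μM. Measured: GM-CSF/IFNγ/TNFα secretion, surface CD69, proliferation by dye dilution.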

Another assay relates to primary human B cells. Description: B cell activation assay (CD69 on anti-IgM stimulated B cells). In kind it is cell-based. The following applies: AUC of dose response curve (10 μM to 1 nM) of CD69 MFI normalized to DMSO control. In short, it runs like this: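 Negatively selected PBMC-derived B cells (>95% CD20+) treated with Cbl-b inhibitors from 10 μM to 1 nM (DMSO <0.5%) and stimulated with anti-IgM for 20 h at 37° C. CD69 MFI on CD20+ IgD+ cells by flow cytometry; dose-response AUC normalized to DMSO plus 2.5 μg/mL anti-IgM-F(ab′)2, binned A-D.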

The mark [2] stands for this setting: CD3/CD28 stimulation, CD4 T-cells, read-out: % CD69+ (CD4).
Where [3] appears, read: CD3/CD28 stimulation, CD8 T-cells, read-out: % CD69+ (CD8).
The mark [4] stands for this setting: CD3 alone stimulation, CD4 T-cells, read-out: % CD69+ (CD4).
[5] abbreviates: CD3 alone stimulation, CD8 T-cells, read-out: % CD69+ (CD8).

Where two headings read alike, the source gives them in different places.

Consider `C[C@H](Sc1nncn1C)c1cccc(NC(=O)c2cc(C(=O)N3CC[C@H](O)C3)ccn2)c1` [Compound 140, 4-[[(3S)-3-hydroxypyrrolidin-1-yl]carbonyl]-N-[3-[(1S)-1-[(4-methyl-4H-1,2,4-triazol-3-yl)sulfanyl]ethyl]phenyl]pyridine-2-carboxamide], for which the fold induction at 1.11 µM in assay [1] (setting [2]) was 1.4 to 1.6; in assay [1] (setting [3]), 1.2 to 1.4; in assay [1] (setting [4]), over 1.6; in assay [1] (setting [5]), 1.4 to 1.6. Besides, the fold induction at 10 µM in assay [1] (setting [2]) is over 1.6; in assay [1] (setting [3]) it was 1.2 to 1.4; in assay [1] (setting [4]), over 1.6; in assay [1] (setting [5]), 1.4 to 1.6. Also, the “CD69 MFI AUC” value in the assay with primary human B cells is recorded as “A (A indicates ≤0.5)”.
Take `C[C@H](Cc1nncn1C)c1cccc(NC(=O)c2cccc(CCO)n2)c1` [Compound 202, 6-(2-hydroxyethyl)-N-[3-[(2R)-1-(4-methyl-4H-1,2,4-triazol-3-yl)propan-2-yl]phenyl]pyridine-2-carboxamide]: the fold induction at 1.11 µM in assay [1] (setting [2]), in assay [1] (setting [3]), in assay [1] (setting [4]) and in assay [1] (setting [5]) was at most 1.2 throughout. Further, the fold induction at 10 µM in assay [1] (setting [2]) was 1.2 to 1.4; in assay [1] (setting [3]) it was at most 1.2; in assay [1] (setting [4]), 1.2 to 1.4; in assay [1] (setting [5]), at most 1.2. Moreover, the “CD69 MFI AUC” value with primary human B cells is listed as “C (C indicates 1.01-1.50)”.
In the case of `C[C@H](Cc1nncn1C)c1cccc(N2Cc3c(ccnc3C3CC3)C2=O)c1` [Compound 257, 4-cyclopropyl-2-[3-[(1R)-1-methyl-2-(4-methyl-1,2,4-triazol-3-yl)ethyl]phenyl]-3H-pyrrolo[3,4-c]pyridin-1-one], the fold induction at 1.11 µM in assay [1] (setting [2]), in assay [1] (setting [3]), in assay [1] (setting [4]) and in assay [1] (setting [5]) was at most 1.2 in each case. For the same molecule, the fold induction at 10 µM in assay [1] (setting [2]) was 1.4 to 1.6; in assay [1] (setting [3]) it was 1.2 to 1.4; in assay [1] (setting [4]), 1.2 to 1.4; in assay [1] (setting [5]) it was 1.2 to 1.4. Besides, in the assay with primary human B cells, the “CD69 MFI AUC” value is “B (B indicates 0.5-1.00)”.
`Cn1cnnc1[C@@H]1C[C@@H]1c1cccc(N2Cc3c(cccc3C(F)(F)F)C2=O)c1` [Compound 282, 2-(3-((1S,2R)-2-(4-methyl-4H-1,2,4-triazol-3-yl)cyclopropyl)phenyl)-4-(trifluoromethyl)isoindolin-1-one]: the fold induction at 1.11 µM in assay [1] (setting [2]), in assay [1] (setting [3]), in assay [1] (setting [4]) and in assay [1] (setting [5]) was at most 1.2 in each case. The fold induction at 10 µM is 1.2 to 1.4 in assay [1] (setting [2]), 1.2 to 1.4 in assay [1] (setting [3]), 1.2 to 1.4 in assay [1] (setting [4]) and at most 1.2 in assay [1] (setting [5]). Further, the “CD69 MFI AUC” value in the assay on primary human B cells was “B (B indicates 0.5-1.00)”.
`C[C@H](Cc1nncn1C)c1ccnc(NC(=O)c2cccc(C(F)(F)F)n2)c1` [Compound 302, (R)-N-(4-(1-(4-methyl-4H-1,2,4-triazol-3-yl)propan-2-yl)pyridin-2-yl)-6-(trifluoromethyl)picolinamide]: the “CD69 MFI AUC” value with primary human B cells was “B (B indicates 0.5-1.00)”.
Turning to `C[C@H](Cc1nncn1C)c1cccc(NC(=O)c2nc(C(F)(F)F)c[nH]2)c1` [Compound 326, (R)-N-(3-(1-(4-methyl-4H-1,2,4-triazol-3-yl)propan-2-yl)phenyl)-4-(trifluoromethyl)-1H-imidazole-2-carboxamide], the fold induction at 1.11 µM was 1.2 to 1.4 in assay [1] (setting [2]), at most 1.2 in assay [1] (setting [3]), 1.2 to 1.4 in assay [1] (setting [4]) and at most 1.2 in assay [1] (setting [5]). For the same molecule, the fold induction at 10 µM in assay [1] (setting [2]) fell in the range of 1.4 to 1.6; in assay [1] (setting [3]), 1.2 to 1.4; in assay [1] (setting [4]), 1.4 to 1.6; in assay [1] (setting [5]), 1.2 to 1.4. Besides, the “CD69 MFI AUC” value in the assay on primary human B cells is “A (A indicates ≤0.5)”.
On to `Cn1cnnc1[C@@H]1C[C@@H]1c1cccc(N2Cc3c(ccnc3C(F)(F)F)C2=O)c1` [Compound 369, 2-{3-[(1S,2R)-2-(4-methyl-4H-1,2,4-triazol-3-yl)cyclopropyl]phenyl}-4-(trifluoromethyl)-1H,2H,3H-pyrrolo[3,4-c]pyridin-1-one], for which the fold induction at 1.11 µM in assay [1] (setting [2]), in assay [1] (setting [3]), in assay [1] (setting [4]) and in assay [1] (setting [5]) was at most 1.2 in each case. Moreover, the fold induction at 10 µM in assay [1] (setting [2]) is 1.4 to 1.6; in assay [1] (setting [3]) it was 1.2 to 1.4; in assay [1] (setting [4]), at most 1.2; in assay [1] (setting [5]) it was at most 1.2. For the same molecule, the “CD69 MFI AUC” value in the assay with primary human B cells is on record as “C (C indicates 1.01-1.50)”.
For the molecule `Cc1cc2c(c(C3CC3)n1)CN(c1cccc([C@H](C)Cc3nncn3C)c1)C2=O` [Compound 372, 4-cyclopropyl-6-methyl-2-{3-[(2R)-1-(4-methyl-4H-1,2,4-triazol-3-yl)propan-2-yl]phenyl}-1H,2H,3H-pyrrolo[3,4-c]pyridin-1-one], the fold induction at 1.11 µM in assay [1] (setting [2]), in assay [1] (setting [3]), in assay [1] (setting [4]) and in assay [1] (setting [5]) was at most 1.2 each time. In addition, the fold induction at 10 µM in assay [1] (setting [2]), in assay [1] (setting [3]), in assay [1] (setting [4]) and in assay [1] (setting [5]) was 1.2 to 1.4 throughout. In addition, the “CD69 MFI AUC” value with primary human B cells is listed as “A (A indicates ≤0.5)”.
In the case of `CNCc1ccc(C(=O)Nc2cccc([C@H](C)Cc3nncn3C)c2)nc1C1CC1` [Compound 376, (R)-6-cyclopropyl-N-(3-(1-(4-methyl-4H-1,2,4-triazol-3-yl)propan-2-yl)phenyl)-5-((methylamino)methyl)picolinamide], the fold induction at 1.11 µM in assay [1] (setting [2]) is 1.4 to 1.6; in assay [1] (setting [3]), 1.2 to 1.4; in assay [1] (setting [4]), over 1.6; in assay [1] (setting [5]) it was 1.2 to 1.4. The fold induction at 10 µM is over 1.6 in assay [1] (setting [2]), 1.2 to 1.4 in assay [1] (setting [3]), over 1.6 in assay [1] (setting [4]) and 1.4 to 1.6 in assay [1] (setting [5]). In addition, the “CD69 MFI AUC” value in the assay on primary human B cells is “B (B indicates 0.5-1.00)”.

The record behind these values is patent US20220324835A1 (Nurix Therapeutics, Inc., priority 2018, published 2022).
